Test results from US9919034B2, “Methods of treating and prophylactically protecting mammalian patients infected by viruses classified in Baltimore group V” (priority 2014, dated 2018).
Read-outs that look alike come from different tables or passages of the source.

Experiments:
RV-14 (strain 1059) = test: RV-14 yield in NHBE cells (titers in HeLa-Ohio-1 cells); format: cell-based, rhinovirus-14
NHBE cells [1] = test: Microscopy evaluation of treated NHBE cells (RV-14 study toxicity controls)
MERS-CoV virus = format: cell-based
[2] = system: influenza A/California/07/2009(H1N1)pdm09 virus; format: cell-based
VEEV = format: cell-based
[3] = system: adenovirus 2, strain Miller; test: Adenovirus yield in NHBE cells (titers in A-549 cells); format: cell-based; conditions: for reduction in virus titers: vs untreated infected controls
RSV A2 = test: RSV yield in NHBE cells (titers in MA-104 cells); format: cell-based; conditions: all treatments (5 μM, 0.5 μM, 0.1 μM), 48 hours post infection
vaccinia, strain WR = test: microbe, parasite or virus in culture; format: cell-based; conditions: read-out: EC50 (concentration reducing plaque numbers by 50%)
NHBE cells [4] = system: NHBE cells
NHBE cells [5] = system: NHBE cells; remark: listed apart in the source
tRNA = conditions: Lin et al., 1994; cited from earlier work
A-72 cells = test: Cytotoxicity of ranpirnase in A-72 cells (morphology); conditions: any of the concentrations tested, 4 days
Vero 76 cells = test: Toxicity in Vero 76 cells (crystal violet staining density)
NHBE cells [6] = test: Microscopy evaluation of treated NHBE cells (RSV study toxicity controls); conditions: sham infected

For `CCOC(=O)c1ccc(OCCC2CCN(c3ccc(C)nn3)CC2)cc1` [pirodavir, reference compound], the “activity against RV-14” value (RV-14 (strain 1059); 0.0032 μg/ml, NHBE cells) was “inactive”, the “inhibition of virus replication (positive control)” value (RV-14 (strain 1059); 10 and 3.2 μg/ml) was “inhibited virus replication as expected” and the “microscopy evaluation of treated NHBE cells (toxicity)” value (shortened to “microscopy evaluation”) (NHBE cells [1]) was “no toxicological phenomena”.
With ranpirnase the “activity against MERS-CoV virus compared with SARS protease inhibitor and Infergen (viral titer)” value (MERS-CoV virus) was “far more active”, the “activity against influenza A/California/07/2009(H1N1)pdm09 virus (virus titer)” value [2] was “statistically significant and dose-dependent” and the “inhibition of VEEV” value (VEEV) was “robust inhibition”. For the same compound, the “reduction in virus titers” value ([3]; 5 μM) was roughly 1 log, the “reduction in virus titers” value ([3]; 10 μM) was roughly 1 log and the “drop in virus titer” value ([3]; 50 μM, vs placebo) was “approximately three”. For the same compound, the “virus titers after treatment” value ([3]; all treatments except the lowest dose) was “undetectable levels”, the “reduction in virus titers compared to untreated, infected controls” value (RSV A2) was 2.3 log and the “virus titers after treatment” value (RSV A2) was “undetectable levels”. For the same compound, the “reduction in virus titers” value (RV-14 (strain 1059); 1 μM, 4 days post infection) was roughly 1 log, the “drop in virus titer” value (RV-14 (strain 1059); 5 μM, 4 days post infection) was roughly 1.67 log 10 and the “drop in virus titer” value (RV-14 (strain 1059); 10 μM, 4 days post infection) was roughly 1.67 log 10. The “drop in virus titer” value (RV-14 (strain 1059); 50 μM, 4 days post infection) was roughly 1.67 log 10, the EC50 (vaccinia, strain WR) was 3.8 µM and the “viability of NHBE cells” value (NHBE cells [4]) was “did not decrease the viability”. The “SI (CC50/IC50)” value (CHIV) was “over 18”, the “inhibition of CHIV” value (CHIV) was “robust inhibition” and the “SI (CC50/IC50)” value (EBOV) was 40-77. The “inhibition of EBOV” value (EBOV) was “robust inhibition”, the “microscopy evaluation” value (NHBE cells [5]) was “no toxicological phenomena” and the “degradation of tRNA” value (tRNA) was “degrades tRNA very effectively”. For the same compound, the “cytotoxic effect (visual morphology)” value (A-72 cells) was “no apparent cytotoxic effect”, the toxicity (Vero 76 cells; 100 μM) was “not toxic” and the toxicity (Vero 76 cells; dilutions used in the assay) was “Neither ranpirnase nor cidofovir was toxic”. For the same compound, the “microscopy evaluation” value (NHBE cells [6]) was “no toxicological phenomena” and the “microscopy evaluation” value (NHBE cells [1]) was “no toxicological phenomena”.
For `Nc1ccn([C@H]2CC[C@@H](CO)O2)c(=O)n1` [2′3′-dideoxycytidine, reference compound], the “inhibition of virus replication (positive control)” value ([3]; NHBE cells, adenovirus MOI 0.1) was “inhibited virus replication as expected”, the “microscopy evaluation” value (NHBE cells [5]) was “no toxicological phenomena” and the “microscopy evaluation” value (NHBE cells [6]) was “no toxicological phenomena”.
For `Nc1ccn(C[C@@H](CO)OCP(=O)(O)O)c(=O)n1` [cidofovir, reference compound], the EC50 (vaccinia, strain WR; Orthopoxvirus vaccinia, Vero 76, 48 h) was 10 µM and the toxicity (Vero 76 cells; dilutions used in the assay) was “Neither ranpirnase nor cidofovir was toxic”.
